Assay results taken from patent publication US7935526B2, “hERG channel-expressing cell” (priority 2003, dated 2011).

Tested on: hERG channel-expressing cells
Description: Specifically, changes in membrane potential may be measured by performing the following operations in a manner as described below. The hERG channel-expressing cell of the invention is cultured for a specific period of time by the appropriate method as described above and suspended in a buffer suitable for measurement. […] Preferably, phosphate buffered saline (pH 7.4) is used. It is preferred that the cell suspension be prepared to give a concentration of 0.2×10^5 cells/ml to 1.0×10^6 cells/ml. Subsequently, the cell suspension is plated on plates (such as Biocoat Poly-D-Lysine 384-Well Black/Clear Plate; BECKTON DICKINSON) and cultured further Cells may be plated at 500 cells/well to 25000 cells/well. Preferably, cells are cultured for about two days after the plating. […] About one hour after the addition of Component A, changes in membrane potential may be measured with FLIPR (Molecular Devices) or FDSS6000 (Hamamatsu Photonics). […] Measurement may be performed at room temperature. hERG inhibitory activity may be calculated from the change in fluorescence intensity caused by the addition of the test compound. […]
About one hour after the addition of Component A, changes in membrane potential were measured with FDSS6000. […] Measurement was performed at room temperature. hERG inhibitory activity was calculated from the fluorescence intensity change for 5 min after the addition of the test substance. […]

## [Cl-].[K+] [KCl]
  changes in membrane potential (fluorescence intensity change): the membrane potential was depolarized
